Measured values as given in BindingDB's records for doi:10.1021/jm060234e (Scientific Computing, 2006).

Target: T1, Progesterone receptor (Homo sapiens, UniProt P06401)
T1 sequence (P06401 whole entry): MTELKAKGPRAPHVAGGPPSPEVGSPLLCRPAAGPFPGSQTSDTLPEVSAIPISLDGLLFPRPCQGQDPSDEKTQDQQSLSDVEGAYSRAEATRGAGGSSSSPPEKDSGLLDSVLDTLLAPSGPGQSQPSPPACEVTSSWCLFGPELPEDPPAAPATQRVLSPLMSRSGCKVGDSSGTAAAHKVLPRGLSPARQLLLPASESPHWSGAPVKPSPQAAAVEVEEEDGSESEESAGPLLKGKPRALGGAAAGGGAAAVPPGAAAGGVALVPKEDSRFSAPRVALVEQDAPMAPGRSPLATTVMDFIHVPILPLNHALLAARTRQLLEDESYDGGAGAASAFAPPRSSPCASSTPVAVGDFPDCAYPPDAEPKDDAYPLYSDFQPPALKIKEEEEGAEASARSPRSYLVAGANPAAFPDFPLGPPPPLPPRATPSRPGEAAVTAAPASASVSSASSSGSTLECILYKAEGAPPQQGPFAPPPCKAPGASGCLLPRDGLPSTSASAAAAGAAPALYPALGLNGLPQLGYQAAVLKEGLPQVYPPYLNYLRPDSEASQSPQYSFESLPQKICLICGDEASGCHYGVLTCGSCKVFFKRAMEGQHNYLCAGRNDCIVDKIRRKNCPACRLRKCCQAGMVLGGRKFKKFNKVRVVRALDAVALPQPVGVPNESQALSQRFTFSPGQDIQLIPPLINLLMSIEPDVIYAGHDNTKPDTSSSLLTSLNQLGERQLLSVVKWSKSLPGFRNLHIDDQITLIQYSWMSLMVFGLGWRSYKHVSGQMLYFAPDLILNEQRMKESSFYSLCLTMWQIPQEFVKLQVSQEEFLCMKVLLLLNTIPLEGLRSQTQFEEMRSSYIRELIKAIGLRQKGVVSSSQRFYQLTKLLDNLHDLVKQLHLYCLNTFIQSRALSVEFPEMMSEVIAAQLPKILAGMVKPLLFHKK
Assay: Displacement of [3H]progesterone from Progesterone receptor

| Ki | Structure (SMILES) |
| --- | --- |
| 13 nM | CC1=CC(C)(C)Nc2ccc3c(c21)COc1c(F)cc(F)cc1-3 [7,9-difluoro-2,2,4-trimethyl-2,5-dihydro-1H-chromeno[3,4-f]quinoline] |
| 15 nM | CC1=CC(C)(C)Nc2ccc3c(c21)Cc1c(F)cccc1-3 [10-Fluoro-1,3,3-trimethyl-4,11-dihydro-3H-indeno[2,1-f]quinoline] |
